Results reported in patent US9427446B2, “Stable injectable composition containing diclofenac and thiocolchicoside” (EPIFARMA S.R.L., priority 2012, dated 2016).

Assay: Suitability of BHT as antioxidant for a solution of diclofenac and thiocolchicoside (solubility/precipitation on storage)
Type: physicochemical
Conditions: ordinary storage conditions

For `Cc1cc(C(C)(C)C)c(O)c(C(C)(C)C)c1` [BHT, 2,6-bis(1,1-dimethylethyl)-4-methylphenol], the “Solubility / precipitation as antioxidant in a solution of diclofenac and thiocolchicoside” value was “poor solubility and precipitation”.
